The record followed here is patent US20200000721A1, “AQUEOUS COMPOSITIONS AND ASSOCIATED CREAM FORMULATIONS” (MedReleaf Corp., priority 2018, published 2020).

In the assay the test system is microbial growth in the aqueous composition. The settings on record: 0.09% in aqueous composition of Table 6. On the procedure:
Microbiological testing was conducted according to USP <51> and USP (Antimicrobial Effectiveness Test) and USP <61> and <62> (Suitability Testing) in order to compare the effectiveness of 1) 0.09% potassium sorbate 2) 0.045% potassium sorbate and 0.045% Euxul™ 9010 and 3) 0.09% Euxul™ 9010 as an antimicrobial agent for prohibiting microbial growth in the aqueous composition described in Table 6.

On to `C/C=C/C=C/C(=O)[O-].[K+]` [potassium sorbate], for which the “effectiveness as antimicrobial agent (comparison)” value is “as effective as Euxul™ 9010 and/or the combination of Euxul™ 9010 and potassium sorbate”.
